# Results as given in patent US10927375B1, “Compositions and methods to reduce beta-agonist-mediated tachyphylaxis” (University of South Florida, priority 2018, dated 2021).
# “Also recorded” adds a separate entry of the source.
# Tests used:
# [1] = test system: let-7f miRNA expression in HASM cells; test: let-7f miRNA expression in cultured HASM cells by quantitative RT-PCR; assay type: cell-based, human; conditions: for change in let-7f miRNA expression after treatment with the agent: 18 h at 37° C., asthmatic and nonasthmatic HASM cells, ISO 30 μM, forskolin 10 mM, dibutyryl-cAMP 100 mM as printed
# [2] = test system: ADRB2 mRNA; test: ADRB2 mRNA in D9 HASM cells by RT-PCR; conditions: 18 h ISO
# Procedure: (§1) The immortalized HASM cell line denoted D9 hTERT was developed as described (22), and was grown in the same manner. […] In some experiments, pretreatment with 10 μM N-(2-[p-bromocinnamylamino]ethyl)-5-isoquinoline-sulfonamide (H89) occurred for 1 h prior to the aforementioned treatments.
# RT-PCR was performed using a LightCycler 96 system (Roche, Basel, Switzerland) and TaqMan polymerase (Applied Biosystems, Foster City, Calif., USA) as previously described (26, 27). The RT reactions utilized Oligo d(T)16 for ADRB2 and glyceraldehyde-3 phosphate dehydrogenase (control), and the primers included with the TaqMan MicroRNA assay (Applied Biosystems) for the reaction with let-7f and U6 snRNA (control). […] Quantitation of transcripts was made by the 22DCt method (28, 29).
# [3] = test system: β2AR; conditions: stably transfected HEK 293 cells greatly overexpressing β2ARs (ref. 40); cited from earlier work
# [4] = test system: β2AR; conditions: incubating cells with dibutyryl-cAMP and forskolin (ref. 37); cited from earlier work
# [5] = biological target: β2AR (Homo sapiens, UniProt P07550); test: β2AR protein expression / agonist-promoted down-regulation in HASM cells (Western blot, radioligand binding)
# Procedure: as §1
# HASM cells in 6-well plates were transfected using Lipofectamine 2000 (Thermo Fisher Scientific, Waltham, Mass., USA) as described in detail elsewhere (22, 23). Cells were in a final volume of 1.0 ml and the indicated constructs along with 10 ml of Lipofectamine 2000 were added to initiate the transfection. The constructs and final concentrations were: cAMP receptor element-binding protein [CREB (in pcDNA3, 4 μg/ml)], siCREB (40 nM of siGenome SmartPool; Dharmacon, Lafayette, Colo., USA), and to inhibit let-7f, a competitive inhibitor (Dharmacon) that binds to let-7f (24, 25) at a final concentration of 40 nM (24, 25). The cells were studied 48 h after transfection. […] Secondary antibody for chemoluminescence (Thermo Fisher Scientific) was at a titer of 1:10,000. ChemiDoc (Bio-Rad, Hercules, Calif., USA) was used to detect bands, which were quantitated using ImageJ (National Institutes of Health, Bethesda, Md., USA).
# Radioligand binding. Confluent cells in 10 cm dishes were washed 3 times with cold PBS followed by disruption with a cell scraper in buffer consisting of 5 mM Tris and 2 mM EDTA at 4° C. (pH 7.4). Crude membranes were collected by centrifugation at 30,000 g for 15 min at 4° C., and resuspended in assay buffer consisting of 75 mM Tris, 12 mM MgCl2, and 5 mM EDTA at 25° C. (pH 7.4). […] After incubation for 1.5 h at 25° C., bound radioligands were separated from free radioligands by rapid dilution and vacuum filtration with buffer containing 15 ml of 5 mM Tris and 2 mM EDTA at 25° C. (pH 7.4) over Whatman GF/C filters (GE Healthcare Bio-Sciences, Piscataway, N.J., USA) using a Brandel cell harvester (Brandel, Gaithersberg, Md., USA). Specific binding was divided by the added cell membrane protein and β2AR expression stated as femtomoles per milligram.
molecule,measurement,setting,value
"CC(C)NCC(O)c1ccc(O)c(O)c1 (centres unmarked) [ISO, isoproterenol]",change in let-7f miRNA expression after treatment with the agent,[1],increased
same,increase in let-7f miRNA expression,"[1]; 18 h exposure to ISO (30 μM), both asthmatic and non-asthmatic HASM cells",~3 fold
same,change in ADRB2 mRNA due to ISO exposure,[2],not altered; also recorded: not found to be changed
O=S(=O)(NCCNCC=Cc1ccc(Br)cc1)c1cccc2cnccc12 [H89],effect of H89 on ISO-promoted increase in let-7f,"[1]; 10 μM H89 pretreatment 1 h, then ISO 18 h, asthmatic and non-asthmatic HASM cells",blocked; also recorded: inhibited
same,effect of H89 on forskolin-promoted increase in let-7f,"[1]; 10 μM H89 pretreatment 1 h, then forskolin 18 h, asthmatic and non-asthmatic HASM cells",blocked; also recorded: inhibited
same,effect of H89 on dibutyryl-cAMP-promoted increase in let-7f,"[1]; 10 μM H89 pretreatment, then dibutyryl-cAMP 18 h, HASM cells",blocked
CCCC(=O)Nc1ncnc2c1ncn2[C@@H]1O[C@@H]2COP(=O)(O)O[C@H]2[C@H]1OC(=O)CCC [dibutyryl-cAMP],change in let-7f miRNA expression after treatment with the agent,[1],increased
same,degree of β2AR down-regulation compared with that of ISO,[3],relatively small degree
same,β2AR down-regulation relative to β-agonists,[4],nearly the same extent
"let-7f inhibitor: competitive inhibitor (Dharmacon) that binds to let-7f; Cat. No. IH-30048-07, SEQ ID NO: 14 (nucleic acid, commercial inhibitor, chemistry not given here) UCAGAGUGAGGUAGUAGAUUGUAUAGUUGUGGGGUAGUGAUUUUACCCUGUUCAGGAGAUAACUAUACAAUCUAUUGCCUUCCCUGA",attenuation of agonist-promoted β2AR down-regulation,"[5]; let-7f or CREB silenced, chronic agonist",about 50%
same,effect on ISO-promoted β2AR down-regulation,"[5]; transfection 40 nM 48 h, then ISO 18 h",attenuates; also recorded: markedly attenuated
